Consider 28 molecules from US9981942B2, “Piperidine derivatives having multimodal activity against pain” (LABORATORIOS DEL DR. ESTEVE S.A., priority 2013, dated 2018).

Molecules are shown by their SMILES. Where only a bound is given, the exact number is not on record here.

In this test the target is σ1 receptor and the μ-opiod receptor. The experiment in a line: μ and σ1 dual binding: combined class from the Ki of both radioligand assays. Also on record: species or system human; key to μ and σ1 dual binding: +: Both Ki-μ and Ki-σ1>=500 nM; ++: One Ki<500 nM while the other Ki is >=500 nM; +++: Both Ki-μ and Ki-σ1<500 nM; ++++: Both Ki-μ and Ki-σ1<100 nM. Particulars: transfected HEK-293 membranes (σ1), transfected CHO-K1 cell membranes (μ); for μ and σ1 dual binding: combined class for Ki-μ and Ki-σ1. The method, then:
To investigate binding properties of σ1 receptor ligands to human σ1 receptor, transfected HEK-293 membranes and [^3H](+)-pentazocine (Perkin Elmer, NET-1056), as the radioligand, were used. The assay was carried out with 7 μg of membrane suspension, 5 nM of [^3H](+)-pentazocine in either absence or presence of either buffer or 10 μM Haloperidol for total and non-specific binding, respectively. Binding buffer contained Tris-HCl 50 mM at pH 8. Plates were incubated at 37° C. for 120 minutes. After the incubation period, the reaction mix was then transferred to MultiScreen HTS, FC plates (Millipore), filtered and plates were washed 3 times with ice-cold 10 mM Tris-HCL (pH7.4). Filters were dried and counted at approximately 40% efficiency in a MicroBeta scintillation counter (Perkin-Elmer) using EcoScint liquid scintillation cocktail
To investigate binding properties of mu-opioid receptor ligands to human μ-opioid receptor, transfected CHO-K1 cell membranes and [^3H]-DAMGO (Perkin Elmer, ES-542-C), as the radioligand, were used. The assay was carried out with 20 μg of membrane suspension, 1 nM of [^3H]-DAMGO in either absence or presence of either buffer or 10 μM Naloxone for total and non-specific binding, respectively. Binding buffer contained Tris-HCl 50 mM, MgCl2 5 mM at pH 7.4. Plates were incubated at 27° C. for 60 minutes. After the incubation period, the reaction mix was then transferred to MultiScreen HTS, FC plates (Millipore), filtered and plates were washed 3 times with ice-cold 10 mM Tris-HCL (pH 7.4). Filters were dried and counted at approximately 40% efficiency in a MicroBeta scintillation counter (Perkin-Elmer) using EcoScint liquid scintillation cocktail.
The following scale as been adopted for representing the binding to the σ1 receptor and the μ-opiod receptor expressed as Ki: • + Both Ki-μ and Ki-σ1>=500 nM • ++ One Ki<500 nM while the other Ki is >=500 nM • +++ Both Ki-μ and Ki-σ1<500 nM • ++++ Both Ki-μ and Ki-σ1<100 nM

`Oc1cccc(C2CCN(Cc3cn(-c4ccccc4O)nn3)CC2)c1` [Example 58, 2-(4-((4-(3-hydroxyphenyl)piperidin-1-yl)methyl)-1H-1,2,3-triazol-1-yl)phenol]: the Ki range for both μ and σ1 (dual-binding class) was below 500 nM.
Regarding `Oc1cccc(C2CCN(Cc3cn(-c4ccc(C(F)(F)F)nc4)nn3)CC2)c1` [Example 60, 3-(1-((1-(6-(trifluoromethyl)pyridin-3-yl)-1H-1,2,3-triazol-4-yl)methyl)piperidin-4-yl)phenol], the Ki range for both μ and σ1 (dual-binding class) was below 100 nM.
The same measure, in the same setting: the value for `CO[C@@H]1Cc2ccccc2[C@H]1n1cc(CN2CCC(c3cccc(O)c3)CC2)nn1` [Example 61, 3-(1-((1-((1R,2R)-2-methoxy-2,3-dihydro-1H-inden-1-yl)-1H-1,2,3-triazol-4-yl)methyl)piperidin-4-yl)phenol] was below 100 nM.
Still for that read-out and setting: the value for `CS(=O)(=O)Nc1cccc(C2CCN(Cc3cn(-c4ccccc4)nn3)CC2)c1` [Example 62, N-(3-(1-((1-phenyl-1H-1,2,3-triazol-4-yl)methyl)piperidin-4-yl)phenyl)methanesulfonamide] was below 100 nM; that for `Oc1cccc(C2CCN(Cc3cn(Cc4cccc(F)c4)nn3)CC2)c1` [Example 63, 3-(1-((1-(3-fluorobenzyl)-1H-1,2,3-triazol-4-yl)methyl)piperidin-4-yl)phenol] was below 100 nM; that for `Oc1cccc(C2CCN(Cc3cn(C4CCC(F)(F)CC4)nn3)CC2)c1` [Example 64, 3-(1-((1-(4,4-difluorocyclohexyl)-1H-1,2,3-triazol-4-yl)methyl)piperidin-4-yl)phenol] was below 100 nM.
On the same count and under the same terms, the figure for `Oc1cccc(C2CCN(Cc3cn([C@H]4c5ccccc5C[C@@H]4O)nn3)CC2)c1` [Example 65, (1S,2S)-1-(4-((4-(3-hydroxyphenyl)piperidin-1-yl)methyl)-1H-1,2,3-triazol-1-yl)-2,3-dihydro-1H-inden-2-ol] is below 500 nM.
As to `Oc1cccc(C2CCN(Cc3cn([C@@H]4CCCC[C@H]4O)nn3)CC2)c1` [Example 66, 3-(1-((1-((1R,2R)-2-hydroxycyclohexyl)-1H-1,2,3-triazol-4-yl)methyl)piperidin-4-yl)phenol], the Ki range for both μ and σ1 (dual-binding class) is below 500 nM.
The same measure, in the same setting: the figure for `OCC(c1ccccc1)n1cc(CN2CCC(c3cccc(O)c3)CC2)nn1` (stereo not shown) [Example 67, 3-(1-((1-(2-hydroxy-1-phenylethyl)-1H-1,2,3-triazol-4-yl)methyl)piperidin-4-yl)phenol] is below 500 nM.
For `CS(=O)(=O)Nc1cccc(C2CCN(Cc3cn(C4CCC(F)(F)CC4)nn3)CC2)c1` [Example 68, N-(3-(1-((1-(4,4-difluorocyclohexyl)-1H-1,2,3-triazol-4-yl)methyl)piperidin-4-yl)phenyl)methanesulfonamide], the “μ and σ1 dual binding” value is reported as “++”.
Same read-out and setting: the entry for `CCC(=O)Nc1cccc(C2CCN(Cc3cn([C@@H]4c5ccccc5C[C@H]4O)nn3)CC2)c1` [Example 69, N-(3-(1-((1-((1R,2R)-2-hydroxy-2,3-dihydro-1H-inden-1-yl)-1H-1,2,3-triazol-4-yl)methyl)piperidin-4-yl)phenyl)propionamide] is “++”.
As to `Oc1cccc(C2CCN(Cc3cn([C@@H]4Cc5ccccc5[C@@H]4F)nn3)CC2)c1` [Example 71, 3-(1-((1-((1S,2R)-1-fluoro-2,3-dihydro-1H-inden-2-yl)-1H-1,2,3-triazol-4-yl)methyl)piperidin-4-yl)phenol], the Ki range for both μ and σ1 (dual-binding class) is below 100 nM.
As to `Oc1cccc(C2CCN(Cc3cn([C@@H]4Cc5ccccc5[C@H]4F)nn3)CC2)c1` [Example 72, 3-(1-((1-((1R,2R)-1-fluoro-2,3-dihydro-1H-inden-2-yl)-1H-1,2,3-triazol-4-yl)methyl)piperidin-4-yl)phenol], the Ki range for both μ and σ1 (dual-binding class) is below 100 nM.
Regarding `CC(=O)Nc1nc2ccc(C3CCN(Cc4cn(-c5ccccc5)nn4)CC3)cc2s1` [Example 74, N-(6-(1-((1-phenyl-1H-1-1,2,3-triazol-4-yl)methyl)piperidin-4-yl)benzo[d]thiazol-2-yl)acetamide], the “μ and σ1 dual binding” value was “++”.
Take `CC(c1ccccn1)n1cc(CN2CCC(c3cccc(O)c3)CC2)nn1` (stereo not shown) [Example 75, 3-(1-((1-(1-(pyridin-2-yl)ethyl)-1H-1,2,3-triazol-4-yl)methyl)piperidin-4-yl)phenol]: the Ki range for both μ and σ1 (dual-binding class) is below 500 nM.
`CC(c1ccccc1)n1cc(CN2CCC(c3cccc(NS(C)(=O)=O)c3)CC2)nn1` (stereo not shown) [Example 76, N-(3-(1-((1-(1-phenylethyl)-1H-1,2,3-triazol-4-yl)methyl)piperidin-4-yl)phenyl)methanesulfonamide]: the Ki range for both μ and σ1 (dual-binding class) was below 500 nM.
Consider `Oc1cccc(C2CCN(Cc3cn([C@@H]4c5ccccc5C[C@H]4O)nn3)CC2)c1` [Example 78, (1R,2R)-1-(4-((4-(3-hydroxyphenyl)piperidin-1-yl)methyl)-1H-1,2,3-triazol-1-yl)-2,3-dihydro-1H-inden-2-ol], for which the Ki range for both μ and σ1 (dual-binding class) is below 500 nM.
Still for that read-out and setting: the figure for `CC(C)S(=O)(=O)Nc1cccc(C2CCN(Cc3cn(Cc4ccccc4)nn3)CC2)c1` [Example 79, N-(3-(1-((1-benzyl-1H-1,2,3-triazol-4-yl)methyl)piperidin-4-yl)phenyl)propane-2-sulfonamide] is below 500 nM.
As to `CC(C)S(=O)(=O)Nc1cccc(C2CCN(Cc3cn(Cc4ccccn4)nn3)CC2)c1` [Example 81, N-(3-(1-((1-(pyridin-2-ylmethyl)-1H-1,2,3-triazol-4-yl)methyl)piperidin-4-yl)phenyl)propane-2-sulfonamide], the “μ and σ1 dual binding” value was “++”.
With `Oc1cccc(C2CCN(Cc3cn([C@H]4CC[C@@H](C(F)(F)F)CC4)nn3)CC2)c1` [Example 82, 3-(1-((1-((1s,4s)-4-(trifluoromethyl)cyclohexyl)-1H-1,2,3-triazol-4-yl)methyl)piperidin-4-yl)phenol], the Ki range for both μ and σ1 (dual-binding class) was below 100 nM.
On to `Oc1cccc(C2CCN(Cc3cn([C@H]4CC[C@H](C(F)(F)F)CC4)nn3)CC2)c1` [Example 83, 3-(1-((1-((1r,4r)-4-(trifluoromethyl)cyclohexyl)-1H-1,2,3-triazol-4-yl)methyl)piperidin-4-yl)phenol], for which the Ki range for both μ and σ1 (dual-binding class) is below 100 nM.
For `Oc1cccc(C2CCN(Cc3cn(-c4ccccn4)nn3)CC2)c1` [Example 84, 3-(1-((1-(pyridin-2-yl)-1H-1,2,3-triazol-4-yl)methyl)piperidin-4-yl)phenol], the Ki range for both μ and σ1 (dual-binding class) was below 100 nM.
The same measure, in the same setting: the figure for `c1ccc(-n2cc(CN3CCC(c4cccc(-c5nnn[nH]5)c4)CC3)nn2)cc1` [Example 85, 4-(3-(1H-tetrazol-5-yl)phenyl)-1-((1-phenyl-1H-1,2,3-triazol-4-yl)methyl)piperidine] is at least 500 nM.
For `CC(c1ccccn1)n1cc(CN2CCC(c3cccc(NS(C)(=O)=O)c3)CC2)nn1` (stereo not shown) [Example 86, N-(3-(1-((1-(1-(pyridin-2-yl)ethyl)-1H-1,2,3-triazol-4-yl)methyl)piperidin-4-yl)phenyl)methanesulfonamide], the “μ and σ1 dual binding” value was “++”.
`CS(=O)(=O)Nc1ccc(F)c(C2CCN(Cc3cn(Cc4ccccc4)nn3)CC2)c1` [Example 87, N-(3-(1-((1-benzyl-1H-1,2,3-triazol-4-yl)methyl)piperidin-4-yl)-4-fluorophenyl)methanesulfonamide]: the Ki range for both μ and σ1 (dual-binding class) was below 500 nM.
Still for that read-out and setting: the value for `Oc1cccc(C2CCN(Cc3cn([C@@H]4c5ccccc5C[C@@H]4O)nn3)CC2)c1` [Example 88, (1R,2S)-1-(4-((4-(3-hydroxyphenyl)piperidin-1-yl)methyl)-1H-1,2,3-triazol-1-yl)-2,3-dihydro-1H-inden-2-ol] was below 500 nM; that for `Oc1cccc(C2CCN(Cc3cn(-c4coc5ccccc45)nn3)CC2)c1` [Example 89, 3-(1-((1-(benzofuran-3-yl)-1H-1,2,3-triazol-4-yl)methyl)piperidin-4-yl)phenol] was below 100 nM.
Regarding `CS(=O)(=O)Nc1cc(C2CCN(Cc3cn(Cc4ccccc4)nn3)CC2)ccc1F` [Example 90, N-(5-(1-((1-benzyl-1H-1,2,3-triazol-4-yl)methyl)piperidin-4-yl)-2-fluorophenyl)methanesulfonamide], the “μ and σ1 dual binding” value is listed as “++”.
